According to patent publication US7557121B2, “Tetrahydronaphthyridine derivatives” (Pfizer Inc, priority 2004, dated 2009):

Legend:
[1] = molecular target: T1, human histamine H3 receptor (Homo sapiens, UniProt Q9Y5N1); assay: H3 cell based functional assay (cAMP through β-lactamase reporter gene activity); settings: functional Ki from antagonist IC50 by Cheng-Prussoff; HEK-293 cells, 10 μM forskolin, 1 nM imetit
T1 construct: expressed in transfected cells; host or cells: HEK-293 cells expressing a CRE β-lactamase reporter gene
Method: H3 Cell Based Functional Assay Compounds were evaluated using a cell based functional assay measuring cAMP through β-lactamase reporter gene activity. A stable cell line was generated from HEK-293 cells expressing a CRE β-lactamase reporter gene and transfected with human histamine H3 receptor cDNA. Cells were seeded at a density of 500,000 cells/ml, and grown overnight in MEM (Invitrogen) supplemented with 1% dialysed FBS (Sigma), 2 mM glutamine (Sigma), 1 mM sodium pyruvate (Sigma), 0.1 mM non essential amino acids (Invitrogen) and 25 mM HEPES (Sigma) in poly D lysine coated 384 well plates (BD Biosciences).

hERG product = molecular target: T2, hERG product (Homo sapiens, UniProt Q12809); assay: Radioligand binding assay for [3H]-dofetilide binding to the hERG product expressed in HEK-293S cells; settings: displacement of 3H-UK068798 (~5 nM) from membranes of hERG expressing HEK-293S cells; Cheng-Prusoff
T2 construct: host or cells: HEK-293S cells (membranes)
Method: (§1) A Radioligand Binding Assay for [^3H]-dofetilide Binding to the hERG Product Expressed in HEK-293S Cells
(§2) hERG expressing HEK-293S cells were obtained from University of Wisconsin and membranes prepared according to standard protocols. Membranes were diluted in assay buffer, consisting of Tris-HCl 50 mM; KCl 10 mM; MgCl2 1 mM pH 7.4 with NaOH, and were pre-coupled with 120 mg/ml YSi polylysine Scintillation Proximity Beads in a ratio of 16 ug protein to 1 mg bead for 2 hours at 4° C. The coupled beads were separated from uncoupled protein by centrifugation and re-suspended in cold assay buffer to give a working solution of 6.25 mgs/ml. 20 μl of test compound was added to a 96-well microtiteplate at a final assay top concentration of 10 μM in serial ½ log dilutions (1 in 3.162) to generate at 10 point IC50 curve. 20 μl of ^3H-UK068798 (Dofetilide, Amersham; specific activity 78-83 Ci/mmole) was placed in each well of a 96 well plate to a final assay concentration of ˜5 nM. To this, 160 μl of bead/membrane mixture was added. The assay plates were shaken for 1 hour at room temperature and incubated for a further 30 minutes at room temperature for beads to settle. The plates were then read on a Packard TopCount NXT. The percentage displacement of ^3H-UK068798 was calculated using 0% as defined by 1% DMSO vehicle in well and 100% as defined by 10 μM UK-068798. Dose response curves were fitted using a four parameter logistical fit and the Ki value was derived using the Cheng-Prusoff equation (Cheng, Y. C. & Prusoff, W. H. (1973). Biochem. Pharmacol., 22, 3099-3108. )

hERG = molecular target: T3, hERG (Homo sapiens, UniProt Q12809); assay: as above; settings: human, membranes of HEK-293S cells expressing hERG, pH 7.4, probe [3H]-dofetilide (3H-UK068798); displacement of 3H-UK068798 (~5 nM) from membranes of hERG expressing HEK-293S cells; Cheng-Prusoff
T3 construct: host or cells: HEK-293S cells (membranes)
Method: as §1, §2

T3 sequence (Q12809 whole entry): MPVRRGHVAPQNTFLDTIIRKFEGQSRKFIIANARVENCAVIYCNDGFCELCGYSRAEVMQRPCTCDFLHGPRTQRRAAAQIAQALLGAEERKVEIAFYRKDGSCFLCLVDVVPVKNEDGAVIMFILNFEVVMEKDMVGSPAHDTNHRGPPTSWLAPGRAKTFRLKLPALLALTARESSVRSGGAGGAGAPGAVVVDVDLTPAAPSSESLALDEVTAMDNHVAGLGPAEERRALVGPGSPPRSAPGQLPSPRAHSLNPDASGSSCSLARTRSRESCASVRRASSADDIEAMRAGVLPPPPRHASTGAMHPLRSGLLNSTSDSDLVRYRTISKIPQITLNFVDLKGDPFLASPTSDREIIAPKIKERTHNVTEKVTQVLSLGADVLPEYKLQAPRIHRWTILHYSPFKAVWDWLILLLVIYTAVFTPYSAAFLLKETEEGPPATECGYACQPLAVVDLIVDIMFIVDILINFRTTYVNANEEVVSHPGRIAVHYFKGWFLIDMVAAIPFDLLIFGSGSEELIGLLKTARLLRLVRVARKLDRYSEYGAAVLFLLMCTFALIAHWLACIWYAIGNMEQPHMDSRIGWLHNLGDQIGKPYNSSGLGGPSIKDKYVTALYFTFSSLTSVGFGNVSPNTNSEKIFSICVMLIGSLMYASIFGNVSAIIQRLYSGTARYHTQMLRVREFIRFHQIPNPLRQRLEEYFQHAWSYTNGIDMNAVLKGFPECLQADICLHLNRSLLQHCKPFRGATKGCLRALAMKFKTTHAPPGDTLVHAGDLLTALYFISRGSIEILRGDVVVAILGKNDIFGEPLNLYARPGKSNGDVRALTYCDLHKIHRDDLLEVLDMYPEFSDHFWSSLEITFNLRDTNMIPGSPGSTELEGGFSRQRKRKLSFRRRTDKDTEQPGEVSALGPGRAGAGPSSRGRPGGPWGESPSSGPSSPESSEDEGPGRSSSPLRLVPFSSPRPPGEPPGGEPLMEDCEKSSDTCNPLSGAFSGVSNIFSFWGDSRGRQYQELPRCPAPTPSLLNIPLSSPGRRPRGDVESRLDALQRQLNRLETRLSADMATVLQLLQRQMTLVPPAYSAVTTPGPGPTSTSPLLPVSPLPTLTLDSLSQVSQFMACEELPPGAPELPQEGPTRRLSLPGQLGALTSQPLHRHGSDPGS
T2 sequence (Q12809 whole entry): as above
T1 sequence (Q9Y5N1 whole entry): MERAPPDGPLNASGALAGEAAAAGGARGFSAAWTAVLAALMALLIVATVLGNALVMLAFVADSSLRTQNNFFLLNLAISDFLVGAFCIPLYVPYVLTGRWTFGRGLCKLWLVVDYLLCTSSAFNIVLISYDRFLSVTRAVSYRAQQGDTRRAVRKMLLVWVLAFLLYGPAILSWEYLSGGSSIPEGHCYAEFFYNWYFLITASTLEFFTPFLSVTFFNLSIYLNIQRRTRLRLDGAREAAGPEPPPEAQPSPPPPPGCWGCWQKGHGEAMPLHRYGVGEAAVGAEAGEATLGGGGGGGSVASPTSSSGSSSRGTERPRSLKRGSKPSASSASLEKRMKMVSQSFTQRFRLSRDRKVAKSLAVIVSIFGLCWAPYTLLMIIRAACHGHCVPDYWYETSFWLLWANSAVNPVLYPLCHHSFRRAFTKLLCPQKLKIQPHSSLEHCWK

Row | SMILES | Ki [1] [µM] | Ki (hERG product) [µM] | Ki at 1.5 h (hERG) [µM]
1 | C[C@@H]1CCCN1CCCOc1ccc2c(n1)CCN(c1cccnn1)C2 [Example 22, 2-{3-[(2R)-2-methylpyrrolidin-1-yl]propoxy}-6-pyridazin-3-yl-5,6,7,8-tetrahydro-1,6-naphthyridine] | 0.00916 | 51.8 | –
2 | C[C@@H]1CCCN1CCCOc1ccc2c(n1)CCN(c1cnccn1)C2 [Example 23, 2-{3-[(2R)-2-methylpyrrolidin-1-yl]propoxy}-6-pyrazin-2-yl-5,6,7,8-tetrahydro-1,6-naphthyridine] | 0.0103 | 11.5 | –
3 | Cc1ccc(N2CCc3nc(OCCCN4CCC[C@H]4C)ccc3C2)cn1 [Example 24, 6-(6-methylpyridin-3-yl)-2-{3-[(2R)-2-methylpyrrolidin-1-yl]propoxy}-5,6,7,8-tetrahydro-1,6-naphthyridine] | 0.00821 | 35.6 | –
4 | C[C@H]1CCCN1CCCOc1ccc2c(n1)CCN(c1cccnn1)C2 [Example 25, 2-{3-[(2S)-2-methylpyrrolidin-1-yl]propoxy}-6-pyridazin-3-yl-5,6,7,8-tetrahydro-1,6-naphthyridine] | 0.00556 | 55.9 | –
5 | C[C@H]1CCCN1CCCOc1ccc2c(n1)CCN(c1cnccn1)C2 [Example 26, 2-{3-[(2S)-2-methylpyrrolidin-1-yl]propoxy}-6-pyrazin-2-yl-5,6,7,8-tetrahydro-1,6-naphthyridine] | 0.00524 | 9.88 | –
6 | c1cnnc(N2CCc3nc(OCCCN4CCCCC4)ccc3C2)c1 [Example 29, 2-(3-piperidin-1-ylpropoxy)-6-pyridazin-3-yl-5,6,7,8-tetrahydro-1,6-naphthyridine] | 0.0198 | 64.4 | –
7 | CNC(=O)c1ccc(N2CCc3nc(OCCCN4CCCC4)ccc3C2)nc1 [Example 44, N-methyl-6-[2-(3-pyrrolidin-1-ylpropoxy)-7,8-dihydro-1,6-naphthyridin-6(5H)-yl]nicotinamide] | 0.0181 | 85.8 | –
8 | NC(=O)c1ccc(N2CCc3nc(OCCCN4CCCCC4)ccc3C2)nc1 [Example 48, 6-[2-(3-piperidin-1-ylpropoxy)-7,8-dihydro-1,6-naphthyridin-6(5H)-yl]nicotinamide] | 0.0145 | – | 100
9 | CNC(=O)c1ccc(N2CCc3nc(OCCCN4CCC[C@H]4C)ccc3C2)cn1 [Example 64, N-Methyl-5-[2-{3-[(2R)-2-methylpyrrolidin-1-yl]propoxy}-7,8-dihydro-1,6-naphthyridin-6(5H)-yl]pyridine-2-carboxamide] | 0.00467 | 55.5 | –
10 | CNC(=O)c1ccc(N2CCc3nc(OCCCN4CCCC4)ccc3C2)cn1 [Example 65, N-Methyl-5-[2-(3-pyrrolidin-1-ylpropoxy)-7,8-dihydro-1,6-naphthyridin-6(5H)-yl]pyridine-2-carboxamide] | 0.0163 | 46.1 | –
11 | CN(C)C(=O)c1ccc(N2CCc3nc(OCCCN4CCCC4)ccc3C2)cn1 [Example 67, N,N-Dimethyl-5-[2-(3-pyrrolidin-1-ylpropoxy)-7,8-dihydro-1,6-naphthyridin-6(5H)-yl]pyridine-2-carboxamide] | 0.0197 | – | 100
12 | CNC(=O)c1ccc(N2CCc3nc(OCCCN4CCC[C@H]4C)ccc3C2)nc1 [Example 68, N-Methyl-6-[2-{3-[(2R)-2-methylpyrrolidin-1-yl]propoxy}-7,8-dihydro-1,6-naphthyridin-6(5H)-yl]nicotinamide] | 0.00828 | – | 100
13 | CNC(=O)c1ccc(N2CCc3nc(OC4CCN(C(C)C)CC4)ccc3C2)nc1 [Example 70, 6-[2-[(1-Isopropylpiperidin4-yl)oxy]-7,8-dihydro-1,6-naphthyridin-6(5H)-yl]-N-methylnicotinamide] | 0.00632 | 94.4 | –
14 | CC(C)N1CCC(Oc2ccc3c(n2)CCN(c2cnccn2)C3)CC1 [Example 71, 2-[(1-Isopropylpiperidin-4-yl)oxy]-6-pyrazin-2-yl-5,6,7,8-tetrahydro-1,6-naphthyridine] | 0.0137 | 22.9 | –
15 | Cc1ccc(N2CCc3nc(OC4CCN(C(C)C)CC4)ccc3C2)cn1 [Example 72, 2-[(1-isoproplpiperidin-4-yl)oxy]-6-(6-methylpyridin-3-yl)-5,6,7,8-tetrahydro-1,6-naphthyridine] | 0.00486 | 13.7 | –
